Tests used:
SR = test: NCI in vitro cell line screen (SRB), Leukemia SR; format: cell-based
Protocol: (§1) For exemplary purposes, an embodiment of the present invention was tested for activity with respect to certain cancer cell lines. The following Tables show results from in vitro 60-cell line antitumor testing from the US National Cancer Institute Developmental Therapeutics Program (NCI-DTP) on compound 2. The testing was in connection with the NCI's In Vitro Cell Line Screening Project (IVCLSP). Detailed information regarding the experiments and their interpretation is available from the NCI.

NCI-H322M = test: NCI in vitro cell line screen (SRB), Non-Small Cell Lung Cancer NCI-H322M; format: cell-based
Protocol: as §1

DU-145 = test: NCI in vitro cell line screen (SRB), Prostate Cancer DU-145; format: cell-based
Protocol: as §1

HIF-1β protein = test: Western blot, HIF-1β protein in T47D nuclear extract; format: cell-based, human
Protocol: Due to the low abundance of HIF-1α protein in whole cell extract, nuclear extract is prepared and the level of HIF-1α protein in the nuclear extract determined by Western blot. Briefly, exponentially grown T47D cells are exposed to compound 2 for 30 minutes. […] Nuclear extracts are prepared from control and treated cells, separated on a SDS/PAGE gel, the separated proteins transferred to a nitrocellulose membrane, incubated with the primary antibodies (anti-HIF-1α, and anti-HIF-1β monoclonal antibodies, Novus Biologicals), secondary antibody biotinylated anti-mouse immunoglobulin G and Vectastain ABC reagent (Vector Laboratories), and developed using ECL reagents (Amersham Biosciences). […] No change in HIF-1β protein level is observed across the treatments. It is reasonable to conclude that the selectivity of compound 2 towards hypoxia-activated HIF-1 is caused by selective blockade of the hypoxic induction of HIF-1 protein.

OVCAR-5 = test: NCI in vitro cell line screen (SRB), Ovarian Cancer OVCAR-5; format: cell-based
Protocol: as §1

SW-620 = test: NCI in vitro cell line screen (SRB), Colon Cancer SW-620; format: cell-based
Protocol: as §1

A549/ATCC = test: NCI in vitro cell line screen (SRB), Non-Small Cell Lung Cancer A549/ATCC; format: cell-based
Protocol: as §1

RPMI-8226 = test: NCI in vitro cell line screen (SRB), Leukemia RPMI-8226; format: cell-based
Protocol: as §1

MDA-MB-231/ATCC = test: NCI in vitro cell line screen (SRB), Breast Cancer MDA-MB-231/ATCC; format: cell-based
Protocol: as §1

HCT-15 = test: NCI in vitro cell line screen (SRB), Colon Cancer HCT-15; format: cell-based
Protocol: as §1

SF-295 = test: NCI in vitro cell line screen (SRB), CNS Cancer SF-295; format: cell-based
Protocol: as §1

[1] = Homo sapiens, read-out: LC50 (the source's name)

Question: What does the source list for COc1ccc([C@@H](O)[C@@H](C)Oc2ccc([C@H]3O[C@H](c4ccc(O[C@H](C)[C@H](O)c5ccc6c(c5)OCO6)c(OC)c4)[C@H](C)[C@H]3C)cc2OC)cc1OC [Compound 2, manassantin B]?
Answer: TGI (SR): >1.00E−4 Molar; CC50 (SR; [1]): > 100 µM; Mean Optical Densities (SR; Log10 Concentration −4.0 Molar): 0.429; Percent Growth (SR; Log10 Concentration −4.0 Molar): 22%; Mean Optical Densities (SR; Log10 Concentration −5.0 Molar): 0.561; Percent Growth (SR; Log10 Concentration −5.0 Molar): 39%; Mean Optical Densities (SR; Log10 Concentration −6.0 Molar): 0.685; Percent Growth (SR; Log10 Concentration −6.0 Molar): 54%; Mean Optical Densities (SR; Log10 Concentration −7.0 Molar): 0.637; Percent Growth (SR; Log10 Concentration −7.0 Molar): 48%; Mean Optical Densities (SR; Log10 Concentration −8.0 Molar): 0.616; Percent Growth (SR; Log10 Concentration −8.0 Molar): 46%; TGI (NCI-H322M): >1.00E−4 Molar; GI50 (NCI-H322M; Homo sapiens): 19.7 µM; LC50 (NCI-H322M; Homo sapiens): > 100 µM; Mean Optical Densities (NCI-H322M; Log10 Concentration −4.0 Molar): 1.146; Percent Growth (NCI-H322M; Log10 Concentration −4.0 Molar): 28%; Mean Optical Densities (NCI-H322M; Log10 Concentration −5.0 Molar): 1.266; Percent Growth (NCI-H322M; Log10 Concentration −5.0 Molar): 59%; Mean Optical Densities (NCI-H322M; Log10 Concentration −6.0 Molar): 1.380; Percent Growth (NCI-H322M; Log10 Concentration −6.0 Molar): 89%; Mean Optical Densities (NCI-H322M; Log10 Concentration −7.0 Molar): 1.370; Percent Growth (NCI-H322M; Log10 Concentration −7.0 Molar): 86%; Mean Optical Densities (NCI-H322M; Log10 Concentration −8.0 Molar): 1.315; Percent Growth (NCI-H322M; Log10 Concentration −8.0 Molar): 72%; TGI (DU-145): >1.00E−4 Molar; GI50 (DU-145; Homo sapiens): 10.6 µM; CC50 (DU-145; [1]): > 100 µM; Mean Optical Densities (DU-145; Log10 Concentration −4.0 Molar): 0.487; Percent Growth (DU-145; Log10 Concentration −4.0 Molar): 28%; Mean Optical Densities (DU-145; Log10 Concentration −5.0 Molar): 0.623; Percent Growth (DU-145; Log10 Concentration −5.0 Molar): 51%; Mean Optical Densities (DU-145; Log10 Concentration −6.0 Molar): 0.800; Percent Growth (DU-145; Log10 Concentration −6.0 Molar): 81%; Mean Optical Densities (DU-145; Log10 Concentration −7.0 Molar): 0.831; Percent Growth (DU-145; Log10 Concentration −7.0 Molar): 86%; Mean Optical Densities (DU-145; Log10 Concentration −8.0 Molar): 0.817; Percent Growth (DU-145; Log10 Concentration −8.0 Molar): 83%; HIF-1β protein level (HIF-1β protein): No change; TGI (OVCAR-5): >1.00E−4 Molar; CC50 (OVCAR-5; [1]): > 100 µM; Mean Optical Densities (OVCAR-5; Log10 Concentration −4.0 Molar): 0.713; Percent Growth (OVCAR-5; Log10 Concentration −4.0 Molar): 11%; Mean Optical Densities (OVCAR-5; Log10 Concentration −5.0 Molar): 0.752; Percent Growth (OVCAR-5; Log10 Concentration −5.0 Molar): 26%; Mean Optical Densities (OVCAR-5; Log10 Concentration −6.0 Molar): 0.862; Percent Growth (OVCAR-5; Log10 Concentration −6.0 Molar): 68%; Mean Optical Densities (OVCAR-5; Log10 Concentration −7.0 Molar): 0.853; Percent Growth (OVCAR-5; Log10 Concentration −7.0 Molar): 65%; Mean Optical Densities (OVCAR-5; Log10 Concentration −8.0 Molar): 0.696; Percent Growth (OVCAR-5; Log10 Concentration −8.0 Molar): 4%; TGI (SW-620): >1.00E−4 Molar; GI50 (SW-620; Homo sapiens): 6.51 µM; CC50 (SW-620; [1]): > 100 µM; Mean Optical Densities (SW-620; Log10 Concentration −4.0 Molar): 0.396; Percent Growth (SW-620; Log10 Concentration −4.0 Molar): 25%; Mean Optical Densities (SW-620; Log10 Concentration −5.0 Molar): 0.544; Percent Growth (SW-620; Log10 Concentration −5.0 Molar): 42%; Mean Optical Densities (SW-620; Log10 Concentration −6.0 Molar): 0.949; Percent Growth (SW-620; Log10 Concentration −6.0 Molar): 87%; Mean Optical Densities (SW-620; Log10 Concentration −7.0 Molar): 1.012; Percent Growth (SW-620; Log10 Concentration −7.0 Molar): 94%; Mean Optical Densities (SW-620; Log10 Concentration −8.0 Molar): 0.955; Percent Growth (SW-620; Log10 Concentration −8.0 Molar): 88%; TGI (A549/ATCC): >1.00E−4 Molar; GI50 (A549/ATCC; Homo sapiens): 6.76 µM; LC50 (concentration giving 50% net cell kill) (A549/ATCC; Homo sapiens): > 100 µM; Mean Optical Densities (A549/ATCC; Log10 Concentration −4.0 Molar): 0.691; Percent Growth (A549/ATCC; Log10 Concentration −4.0 Molar): 30%; Mean Optical Densities (A549/ATCC; Log10 Concentration −5.0 Molar): 0.849; Percent Growth (A549/ATCC; Log10 Concentration −5.0 Molar): 45%; Mean Optical Densities (A549/ATCC; Log10 Concentration −6.0 Molar): 1.200; Percent Growth (A549/ATCC; Log10 Concentration −6.0 Molar): 77%; Mean Optical Densities (A549/ATCC; Log10 Concentration −7.0 Molar): 1.242; Percent Growth (A549/ATCC; Log10 Concentration −7.0 Molar): 80%; Mean Optical Densities (A549/ATCC; Log10 Concentration −8.0 Molar): 1.288; Percent Growth (A549/ATCC; Log10 Concentration −8.0 Molar): 85%; TGI (RPMI-8226): 1.45E−5 Molar; GI50 (RPMI-8226; Homo sapiens): 337 nM; Mean Optical Densities (RPMI-8226; Log10 Concentration −4.0 Molar): 0.213; Percent Growth (RPMI-8226; Log10 Concentration −4.0 Molar): −33%; Mean Optical Densities (RPMI-8226; Log10 Concentration −5.0 Molar): 0.356; Percent Growth (RPMI-8226; Log10 Concentration −5.0 Molar): 6%; Mean Optical Densities (RPMI-8226; Log10 Concentration −6.0 Molar): 0.532; Percent Growth (RPMI-8226; Log10 Concentration −6.0 Molar): 34%; Mean Optical Densities (RPMI-8226; Log10 Concentration −7.0 Molar): 0.737; Percent Growth (RPMI-8226; Log10 Concentration −7.0 Molar): 67%; Mean Optical Densities (RPMI-8226; Log10 Concentration −8.0 Molar): 0.766; Percent Growth (RPMI-8226; Log10 Concentration −8.0 Molar): 72%; TGI (MDA-MB-231/ATCC): 4.74E−5 Molar; GI50 (MDA-MB-231/ATCC; Homo sapiens): 968 nM; CC50 (MDA-MB-231/ATCC; [1]): > 100 µM; Mean Optical Densities (MDA-MB-231/ATCC; Log10 Concentration −4.0 Molar): 0.384; Percent Growth (MDA-MB-231/ATCC; Log10 Concentration −4.0 Molar): −7%; Mean Optical Densities (MDA-MB-231/ATCC; Log10 Concentration −5.0 Molar): 0.457; Percent Growth (MDA-MB-231/ATCC; Log10 Concentration −5.0 Molar): 14%; Mean Optical Densities (MDA-MB-231/ATCC; Log10 Concentration −6.0 Molar): 0.569; Percent Growth (MDA-MB-231/ATCC; Log10 Concentration −6.0 Molar): 50%; Mean Optical Densities (MDA-MB-231/ATCC; Log10 Concentration −7.0 Molar): 0.630; Percent Growth (MDA-MB-231/ATCC; Log10 Concentration −7.0 Molar): 69%; Mean Optical Densities (MDA-MB-231/ATCC; Log10 Concentration −8.0 Molar): 0.640; Percent Growth (MDA-MB-231/ATCC; Log10 Concentration −8.0 Molar): 72%; TGI (HCT-15): >1.00E−4 Molar; GI50 (HCT-15; Homo sapiens): 4.91 µM; CC50 (HCT-15; [1]): > 100 µM; Mean Optical Densities (HCT-15; Log10 Concentration −4.0 Molar): 0.319; Percent Growth (HCT-15; Log10 Concentration −4.0 Molar): 26%; Mean Optical Densities (HCT-15; Log10 Concentration −5.0 Molar): 0.400; Percent Growth (HCT-15; Log10 Concentration −5.0 Molar): 38%; Mean Optical Densities (HCT-15; Log10 Concentration −6.0 Molar): 0.660; Percent Growth (HCT-15; Log10 Concentration −6.0 Molar): 77%; Mean Optical Densities (HCT-15; Log10 Concentration −7.0 Molar): 0.691; Percent Growth (HCT-15; Log10 Concentration −7.0 Molar): 82%; Mean Optical Densities (HCT-15; Log10 Concentration −8.0 Molar): 0.683; Percent Growth (HCT-15; Log10 Concentration −8.0 Molar): 80%; TGI (SF-295): 7.46E−5 Molar; GI50 (SF-295; Homo sapiens): < 10 nM; CC50 (SF-295; [1]): > 100 µM; Mean Optical Densities (SF-295; Log10 Concentration −4.0 Molar): 0.523; Percent Growth (SF-295; Log10 Concentration −4.0 Molar): −2%; Mean Optical Densities (SF-295; Log10 Concentration −5.0 Molar): 0.621; Percent Growth (SF-295; Log10 Concentration −5.0 Molar): 11%; Mean Optical Densities (SF-295; Log10 Concentration −6.0 Molar): 0.851; Percent Growth (SF-295; Log10 Concentration −6.0 Molar): 39%; Mean Optical Densities (SF-295; Log10 Concentration −7.0 Molar): 0.811; Percent Growth (SF-295; Log10 Concentration −7.0 Molar): 34%; Mean Optical Densities (SF-295; Log10 Concentration −8.0 Molar): 0.751; Percent Growth (SF-295; Log10 Concentration −8.0 Molar): 27%
